Experimental data as given in patent US20220280661A1, “GLUCOCORTICOID RECEPTOR RADIOLIGANDS AND METHODS FOR THEIR PREPARATION AND USE” (The Regents of the University of California, priority 2019, published 2022).
Where “and” joins values, the source holds several entries; their conditions need not be identical. Identical values can stand only once. Like-named read-outs stand apart in the source and are kept apart here.

Conditions: from 90 min dynamic PET in C57B16/J mice
Source text: Normal Tissue Radiation Dose Estimation. Volumes of interest (VOIs) were drawn on coregistered CT images for brain, lungs, heart, liver, stomach, kidneys, and urinary bladder. All VOIs were either elliptical cylinder (5 mm long axis, 3 mm short axis, and 5 mm height for the brain), cylinders (3 mm diameter and 3 mm height for kidneys), or spheres (3 mm diameter for lungs, heart, liver, stomach, and urinary bladder), and they were placed well within the anatomical boundaries to minimize spill-over or spill-in of radioactivity. The mean values (in Bq/ml) in these VOIs were multiplied by standard mouse organ volumes (in ml) to estimate total activity (in Bq) within these organs. The total activity within the entire animal subtracted by all organ activities was used as activity in the remainder of the body. The percent of injected activity within the defined organs (% IA) was extrapolated to human-equivalent values using ratios of standard human organ weights to mouse organ weights.
These input % IA data for each organ and the remainder of the body were curve-fitted to derive time-integrated activity coefficients (also known as residence times) (in Bq-hr/Bq) and organ and whole-body effective doses for human equivalents were estimated using each mouse data. The data from the three animals were averaged to derive absorbed organs doses (in mGy/MBq) and whole-body effective dose (in mSv/MBq). Organ and effective dose estimations were performed using OLINDA version 2.0 using ICRP Publication 103 tissue weighting factors.
To explore the potential of (±)-^11C-YJH08 for human translation, a rodent dosimetry study was conducted in male and female C57B16/J mice ([…]). The human equivalent doses for an average adult male (73 kg) or an average adult female (60 kg) were calculated using OLINDA 2.0 incorporating ICRP103 tissue weighting factors based on region of interest analysis from 90 min dynamic PET acquisitions (Table 11). […] The values were calculated from a 90 min dynamic PET acquisition in intact male or female C57B16/J mice.

Compound: CC1=CC(C)(C)Nc2ccc3c(c21)C(Cc1ccc(F)cc1)Oc1cccc(O[11CH3])c1-3 (racemic) [(±)-^11C-YJH08]
- Effective Dose (whole-body) (Adult female (60 kg)): 0.0065±0.004 mSv/MBq and 0.00649 ± 0.000433 mSv/MBq
- human equivalent absorbed dose, Adrenals (Adult female (60 kg)): 0.00578 ± 0.000156 mGy/MBq
- human equivalent absorbed dose, Brain (Adult female (60 kg)): 0.00229 ± 0.000078 mGy/MBq
- human equivalent absorbed dose, Breasts (Adult female (60 kg)): 0.00286 ± 0.000129 mGy/MBq
- human equivalent absorbed dose, Esophagus (Adult female (60 kg)): 0.00544 ± 0.000439 mGy/MBq
- human equivalent absorbed dose, Eyes (Adult female (60 kg)): 0.00223 ± 0.000061 mGy/MBq
- human equivalent absorbed dose, Gallbladder Wall (Adult female (60 kg)): 0.00459 ± 0.000041 mGy/MBq
- human equivalent absorbed dose, Heart Wall (Adult female (60 kg)): 0.0257 ± 0.005677 mGy/MBq
- human equivalent absorbed dose, Kidneys (Adult female (60 kg)): 0.00785 ± 0.001344 mGy/MBq
- human equivalent absorbed dose, Left colon (Adult female (60 kg)): 0.00437 ± 0.000314 mGy/MBq
- human equivalent absorbed dose, Liver (Adult female (60 kg)): 0.01863 ± 0.001258 mGy/MBq
- human equivalent absorbed dose, Lungs (Adult female (60 kg)): 0.00909 ± 0.000339 mGy/MBq
- human equivalent absorbed dose, Osteogenic Cells (Adult female (60 kg)): 0.00217 ± 0.000069 mGy/MBq
- human equivalent absorbed dose, Ovaries (Adult female (60 kg)): 0.00288 ± 0.000090 mGy/MBq
- human equivalent absorbed dose, Pancreas (Adult female (60 kg)): 0.00545 ± 0.000182 mGy/MBq
- human equivalent absorbed dose, Rectum (Adult female (60 kg)): 0.0028 ± 0.000087 mGy/MBq
- human equivalent absorbed dose, Red Marrow (Adult female (60 kg)): 0.00289 ± 0.000101 mGy/MBq
- human equivalent absorbed dose, Right colon (Adult female (60 kg)): 0.00339 ± 0.000070 mGy/MBq
- human equivalent absorbed dose, Salivary Glands (Adult female (60 kg)): 0.00241 ± 0.000068 mGy/MBq
- human equivalent absorbed dose, Small Intestine (Adult female (60 kg)): 0.00325 ± 0.000114 mGy/MBq
- human equivalent absorbed dose, Spleen (Adult female (60 kg)): 0.00432 ± 0.0003 mGy/MBq
- human equivalent absorbed dose, Stomach Wall (Adult female (60 kg)): 0.01925 ± 0.002944 mGy/MBq
- human equivalent absorbed dose, Thymus (Adult female (60 kg)): 0.00498 ± 0.000454 mGy/MBq
- human equivalent absorbed dose, Thyroid (Adult female (60 kg)): 0.00297 ± 0.000118 mGy/MBq
- human equivalent absorbed dose, Total Body (Adult female (60 kg)): 0.00366 ± 0.000121 mGy/MBq
- human equivalent absorbed dose, Urinary Bladder Wall (Adult female (60 kg)): 0.00288 ± 0.000114 mGy/MBq
- human equivalent absorbed dose, Uterus (Adult female (60 kg)): 0.00284 ± 0.000085 mGy/MBq
- Effective Dose (whole-body) (Adult male (73 kg)): 0.0067±0.002 mSv/MBq and 0.00673 ± 0.002757 mSv/MBq
- human equivalent absorbed dose, Adrenals (Adult male (73 kg)): 0.00533 ± 0.000748 mGy/MBq
- human equivalent absorbed dose, Brain (Adult male (73 kg)): 0.0014 ± 0.000022 mGy/MBq
- human equivalent absorbed dose, Esophagus (Adult male (73 kg)): 0.00831 ± 0.004249 mGy/MBq
- human equivalent absorbed dose, Eyes (Adult male (73 kg)): 0.00194 ± 0.000092 mGy/MBq
- human equivalent absorbed dose, Gallbladder Wall (Adult male (73 kg)): 0.00602 ± 0.000876 mGy/MBq
- human equivalent absorbed dose, Heart Wall (Adult male (73 kg)): 0.06753 ± 0.05072 mGy/MBq
- human equivalent absorbed dose, Kidneys (Adult male (73 kg)): 0.00714 ± 0.000174 mGy/MBq
- human equivalent absorbed dose, Left colon (Adult male (73 kg)): 0.00374 ± 0.000769 mGy/MBq
- human equivalent absorbed dose, Liver (Adult male (73 kg)): 0.01568 ± 0.001377 mGy/MBq
- human equivalent absorbed dose, Lungs (Adult male (73 kg)): 0.0135 ± 0.01113 mGy/MBq
- human equivalent absorbed dose, Osteogenic Cells (Adult male (73 kg)): 0.00223 ± 0.000391 mGy/MBq
- human equivalent absorbed dose, Pancreas (Adult male (73 kg)): 0.00665 ± 0.002374 mGy/MBq
- human equivalent absorbed dose, Prostate (Adult male (73 kg)): 0.0025 ± 0.000105 mGy/MBq
- human equivalent absorbed dose, Rectum (Adult male (73 kg)): 0.00249 ± 0.000093 mGy/MBq
- human equivalent absorbed dose, Red Marrow (Adult male (73 kg)): 0.0031 ± 0.000771 mGy/MBq
- human equivalent absorbed dose, Right colon (Adult male (73 kg)): 0.00367 ± 0.000548 mGy/MBq
- human equivalent absorbed dose, Salivary Glands (Adult male (73 kg)): 0.00226 ± 0.000156 mGy/MBq
- human equivalent absorbed dose, Small Intestine (Adult male (73 kg)): 0.00325 ± 0.000446 mGy/MBq
- human equivalent absorbed dose, Spleen (Adult male (73 kg)): 0.00378 ± 0.000828 mGy/MBq
- human equivalent absorbed dose, Stomach Wall (Adult male (73 kg)): 0.01628 ± 0.005962 mGy/MBq
- human equivalent absorbed dose, Testes (Adult male (73 kg)): 0.00204 ± 0.000046 mGy/MBq
- human equivalent absorbed dose, Thymus (Adult male (73 kg)): 0.01004 ± 0.005999 mGy/MBq
- human equivalent absorbed dose, Thyroid (Adult male (73 kg)): 0.00355 ± 0.00107 mGy/MBq
- human equivalent absorbed dose, Total Body (Adult male (73 kg)): 0.00355 ± 0.000856 mGy/MBq
- human equivalent absorbed dose, Urinary Bladder Wall (Adult male (73 kg)): 0.00247 ± 0.000136 mGy/MBq
